The results in this text go back to PubChem BioAssay (NCI).

Some test systems named below: NCI-H226 lung; UO-31 renal; SK-MEL-5 melanoma; K-562 leukemia; M14 melanoma; SNB-75 CNS; T-47D breast; SK-MEL-2 melanoma; OVCAR-8 ovarian; SNB-19 CNS.
Holding throughout (test): inhibition of tumour cell growth, NCI panel, 48 h

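Five compound concentrations were applied to cells in 96-well plates for 48 hours; endpoints were derived by simple linear interpolation of the resulting dose-response curve. GI50 = concentration required for 50% inhibition of growth. The concentration for full growth arrest is given as TGI.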

`Cc1ccc(/C=N\NC(=O)c2[nH]c3ccc(F)cc3c2-c2ccccc2)cc1`: the GI50 in the experiment with NCI-H226 lung was 0.0321 µM; in the experiment with UO-31 renal, 0.0472 µM; with SK-MEL-5 melanoma, 0.0224 µM; with K-562 leukemia it was 0.038 µM; with M14 melanoma, 0.0275 µM; in the experiment with SNB-75 CNS it was 0.0382 µM. Moreover, the GI50 in the experiment on T-47D breast was 1.1 µM; in the experiment with SK-MEL-2 melanoma it was 0.0488 µM; with OVCAR-8 ovarian, 0.0389 µM; in the experiment with SNB-19 CNS, 0.0493 µM. The TGI in the experiment with NCI-H226 lung was > 100 µM; with UO-31 renal, > 46 µM; in the experiment with SK-MEL-5 melanoma it was 0.0559 µM; in the experiment with K-562 leukemia, 15.5 µM; in the experiment with SNB-75 CNS it was 16.6 µM; in the experiment with T-47D breast it was > 100 µM. Moreover, the TGI in the experiment on SK-MEL-2 melanoma was 24.5 µM; with OVCAR-8 ovarian, > 100 µM; with SNB-19 CNS, > 100 µM.

On to `O=C1CCC(N2Cc3cc(CNC(=O)C(F)(F)c4ccc(Cl)cc4)ccc3C2=O)C(=O)N1` (stereo not drawn), for which the GI50 was 1.75 µM in the experiment with NCI-H226 lung; 0.32 µM with UO-31 renal; 41.6 µM in the experiment with SK-MEL-5 melanoma; > 96.3 µM in the experiment with K-562 leukemia; 38.4 µM in the experiment on M14 melanoma; 0.152 µM with SNB-75 CNS. Besides, the GI50 was 0.442 µM in the experiment with T-47D breast, > 100 µM with SK-MEL-2 melanoma, 0.243 µM in the experiment with OVCAR-8 ovarian and > 87.1 µM with SNB-19 CNS. Besides, the TGI with NCI-H226 lung, with UO-31 renal, in the experiment on SK-MEL-5 melanoma, with K-562 leukemia, in the experiment with M14 melanoma and in the experiment with SNB-75 CNS was > 100 µM each time. Further, the TGI in the experiment on T-47D breast, in the experiment on SK-MEL-2 melanoma, in the experiment on OVCAR-8 ovarian and in the experiment on SNB-19 CNS was > 100 µM throughout.

As for `CN[C@@H](C)C(=O)N[C@H](C(=O)N1CCC[C@H]1C(=O)Nc1sc(-c2ncco2)nc1-c1ccccc1)C1CCCCC1`, the GI50 in the experiment with NCI-H226 lung is > 100 µM; in the experiment with UO-31 renal, 32.1 µM; in the experiment with SK-MEL-5 melanoma, 9.93 µM; in the experiment with K-562 leukemia, 24.7 µM; with M14 melanoma it was 18.5 µM; with SNB-75 CNS, 12.2 µM. In addition, the GI50 is 24.3 µM in the experiment on T-47D breast, 16.3 µM with SK-MEL-2 melanoma, 17.2 µM in the experiment with OVCAR-8 ovarian and 30 µM in the experiment with SNB-19 CNS. For the same molecule, the TGI in the experiment with NCI-H226 lung is > 100 µM; in the experiment with UO-31 renal, > 68.9 µM; in the experiment with SK-MEL-5 melanoma, 24 µM; in the experiment with K-562 leukemia it was 63.6 µM; in the experiment with M14 melanoma, 36.7 µM; in the experiment with SNB-75 CNS it was 65.4 µM. Further, the TGI in the experiment on T-47D breast is 82.4 µM; in the experiment on SK-MEL-2 melanoma, > 100 µM; in the experiment on OVCAR-8 ovarian, 42.7 µM; with SNB-19 CNS, 98.7 µM.

As to `COc1cccc(OC(=O)c2ccc(C(F)(F)F)nc2Nc2cc(Cl)ccc2C)c1`, the GI50 in the experiment with NCI-H226 lung is 4.88 µM; in the experiment with UO-31 renal, 5.8 µM; in the experiment on SK-MEL-5 melanoma, 2.63 µM; with K-562 leukemia it was 3.13 µM; in the experiment with M14 melanoma, 19.3 µM; in the experiment on SNB-75 CNS it was 9.04 µM. The GI50 in the experiment on T-47D breast was 2.82 µM; in the experiment on SK-MEL-2 melanoma, 12.9 µM; with OVCAR-8 ovarian, 24.2 µM; in the experiment with SNB-19 CNS it was > 100 µM. Moreover, the TGI with NCI-H226 lung is 31.5 µM; in the experiment with UO-31 renal, > 100 µM; with SK-MEL-5 melanoma, 12.5 µM; in the experiment on K-562 leukemia, 9.36 µM; in the experiment on M14 melanoma, 56.6 µM; in the experiment with SNB-75 CNS it was > 100 µM. In addition, the TGI in the experiment with T-47D breast was > 100 µM; in the experiment with SK-MEL-2 melanoma, 50.2 µM; in the experiment on OVCAR-8 ovarian, > 100 µM; in the experiment on SNB-19 CNS, > 100 µM.

`O=S(=O)(c1ccc(Cl)cc1)C(Cl)(Cl)Cl`: the GI50 is 4.86 µM with NCI-H226 lung; 0.298 µM with UO-31 renal; 3.02 µM in the experiment on SK-MEL-5 melanoma; 1.6 µM with K-562 leukemia; 1.63 µM in the experiment with M14 melanoma; 2.34 µM in the experiment on SNB-75 CNS. For the same molecule, the GI50 is 1.39 µM in the experiment with T-47D breast, 3.05 µM in the experiment with SK-MEL-2 melanoma, 3.5 µM in the experiment on OVCAR-8 ovarian and 15.2 µM in the experiment with SNB-19 CNS. Also, the TGI in the experiment on NCI-H226 lung is 21.9 µM; in the experiment with UO-31 renal it was 11.5 µM; in the experiment on SK-MEL-5 melanoma it was 12.1 µM; with K-562 leukemia, > 100 µM; with M14 melanoma it was 4.32 µM; with SNB-75 CNS, 20.3 µM. For the same molecule, the TGI in the experiment on T-47D breast is > 33.1 µM; in the experiment with SK-MEL-2 melanoma, 19.9 µM; with OVCAR-8 ovarian, 35.5 µM; in the experiment on SNB-19 CNS, > 78.1 µM.

For the molecule `COc1cc2c(cc1OCCCn1c(-c3ccccn3)nc3ccccc31)N=C[C@@H]1CCCN1C2=O`, the GI50 in the experiment on NCI-H226 lung is 0.8 µM; with UO-31 renal, 0.474 µM; in the experiment on SK-MEL-5 melanoma, 1.57 µM; in the experiment on K-562 leukemia, 12.2 µM; in the experiment with M14 melanoma, 0.92 µM; in the experiment with SNB-75 CNS, 1.72 µM. Moreover, the GI50 is 2.14 µM in the experiment with T-47D breast, 1.52 µM with SK-MEL-2 melanoma, 0.957 µM with OVCAR-8 ovarian and 3.61 µM in the experiment on SNB-19 CNS. The TGI with NCI-H226 lung was 6.9 µM; in the experiment with UO-31 renal it was 2.59 µM; with SK-MEL-5 melanoma, 2.96 µM; with K-562 leukemia, > 55.3 µM; in the experiment with M14 melanoma, 2.8 µM; in the experiment with SNB-75 CNS, 5.73 µM. For the same molecule, the TGI is 8.13 µM in the experiment on T-47D breast, 3.94 µM in the experiment with SK-MEL-2 melanoma and 18.1 µM with SNB-19 CNS.

Turning to `O=c1[nH]c(=O)n(C2CC(O)C(COP(=O)(OCc3ccc([N+](=O)[O-])o3)N(CCCCCl)CC(O)CO)O2)cc1F` (stereo not drawn), the GI50 is 0.157 µM in the experiment with NCI-H226 lung; 0.174 µM with UO-31 renal; 0.386 µM with SK-MEL-5 melanoma; 3.14 µM with K-562 leukemia; 0.365 µM in the experiment with M14 melanoma; 2.82 µM with SNB-75 CNS. The GI50 with T-47D breast was > 21.4 µM; with SK-MEL-2 melanoma, > 73.8 µM; with OVCAR-8 ovarian it was 0.182 µM; with SNB-19 CNS, > 20.3 µM. For the same molecule, the TGI in the experiment with NCI-H226 lung is > 55.2 µM; in the experiment on UO-31 renal, > 100 µM; with SK-MEL-5 melanoma it was 4.49 µM; in the experiment on K-562 leukemia it was > 100 µM; in the experiment on M14 melanoma it was 2.23 µM; in the experiment with SNB-75 CNS, > 100 µM. Moreover, the TGI in the experiment on T-47D breast, in the experiment with SK-MEL-2 melanoma, in the experiment on OVCAR-8 ovarian and in the experiment with SNB-19 CNS was > 100 µM throughout.

As for `COC1C=COC2(C)Oc3c(C)c(O)c4c(c3C2=O)/C(=N/C2CCC(O)OC2C)C=C(NC(=O)/C(C)=C\C(=O)C2CC2C(O)C(C)C(O)C(C)C(OC(C)=O)C1C)C4=O` (stereo not drawn), the TGI with NCI-H226 lung was 8.06 µM; in the experiment with UO-31 renal it was 5.59 µM; in the experiment with SK-MEL-5 melanoma it was 4.97 µM; in the experiment with K-562 leukemia, 6.3 µM; in the experiment with M14 melanoma it was 4.47 µM; with SNB-75 CNS it was 12.4 µM. The TGI is 8.61 µM in the experiment with T-47D breast, 12.4 µM with SK-MEL-2 melanoma, 3.89 µM in the experiment with OVCAR-8 ovarian and 11.6 µM with SNB-19 CNS.
